{"source": "ChEMBL document CHEMBL1201862", "about": "“PubChem BioAssay data set” (2004)", "key": {"[1]": {"test": "A cell-based HTS for delayed death inhibitors of the malarial parasite plastid Measured in Microorganism System Using Plate Reader - 2126-01_Inhibitor_Dose_DryPowder_Activity.", "format": "functional, organism-based"}, "[2]": {"test": "A cell-based HTS for delayed death inhibitors of the malarial parasite plastid Measured in Microorganism System Using Plate Reader - 2126-02_Inhibitor_Dose_DryPowder_Activity.", "format": "functional, organism-based"}, "[3]": {"biological_target": "T1, Sentrin-specific protease 6 (Homo sapiens, UniProt Q9GZR1)", "T1 sequence (Q9GZR1 whole entry)": "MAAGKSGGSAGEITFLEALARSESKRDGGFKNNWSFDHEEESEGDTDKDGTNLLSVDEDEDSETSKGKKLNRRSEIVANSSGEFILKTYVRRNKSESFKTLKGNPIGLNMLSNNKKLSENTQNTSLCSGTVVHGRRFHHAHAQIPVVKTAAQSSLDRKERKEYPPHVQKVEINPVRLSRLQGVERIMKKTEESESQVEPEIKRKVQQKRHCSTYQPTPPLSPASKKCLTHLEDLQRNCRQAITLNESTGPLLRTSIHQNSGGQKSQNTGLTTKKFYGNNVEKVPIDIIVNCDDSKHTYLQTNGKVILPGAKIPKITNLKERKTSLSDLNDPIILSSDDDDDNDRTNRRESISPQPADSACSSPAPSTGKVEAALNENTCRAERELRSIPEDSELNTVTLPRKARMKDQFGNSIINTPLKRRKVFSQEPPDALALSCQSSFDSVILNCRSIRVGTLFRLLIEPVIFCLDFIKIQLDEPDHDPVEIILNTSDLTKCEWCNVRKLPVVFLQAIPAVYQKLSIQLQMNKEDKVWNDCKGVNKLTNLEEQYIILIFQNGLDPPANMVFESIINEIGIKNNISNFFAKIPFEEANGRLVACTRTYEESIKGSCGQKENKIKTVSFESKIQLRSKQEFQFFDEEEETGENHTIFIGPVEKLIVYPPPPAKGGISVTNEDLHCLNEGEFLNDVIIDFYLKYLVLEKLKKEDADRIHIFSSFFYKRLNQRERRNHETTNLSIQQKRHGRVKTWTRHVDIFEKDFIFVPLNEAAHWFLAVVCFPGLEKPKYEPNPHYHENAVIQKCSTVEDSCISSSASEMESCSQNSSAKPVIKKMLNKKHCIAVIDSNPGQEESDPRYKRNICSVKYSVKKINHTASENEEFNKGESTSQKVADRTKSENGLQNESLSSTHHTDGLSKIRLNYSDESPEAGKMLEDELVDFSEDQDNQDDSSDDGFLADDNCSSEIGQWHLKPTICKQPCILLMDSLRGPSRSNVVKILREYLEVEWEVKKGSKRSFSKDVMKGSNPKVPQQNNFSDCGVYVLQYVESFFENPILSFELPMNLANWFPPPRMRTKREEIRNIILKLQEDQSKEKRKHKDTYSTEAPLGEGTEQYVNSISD", "format": "functional"}, "[4]": {"test": "(§1) Counterscreen for antagonists of the orexin 1 receptor (OX1R; HCRTR1): Fluorescence-based cell-based high throughput dose response assay to identify antagonists of the parental CHO cell line. [Related pubchem assays (depositor defined):AID434989, AID435008, AID463079, AID485270, AID492963, AID492964, AID492965, AID493232, AID504699, AID504701]", "format": "functional"}, "[5]": {"biological_target": "T2, Sentrin-specific protease 8 (Homo sapiens, UniProt Q96LD8)", "T2 sequence (Q96LD8 whole entry)": "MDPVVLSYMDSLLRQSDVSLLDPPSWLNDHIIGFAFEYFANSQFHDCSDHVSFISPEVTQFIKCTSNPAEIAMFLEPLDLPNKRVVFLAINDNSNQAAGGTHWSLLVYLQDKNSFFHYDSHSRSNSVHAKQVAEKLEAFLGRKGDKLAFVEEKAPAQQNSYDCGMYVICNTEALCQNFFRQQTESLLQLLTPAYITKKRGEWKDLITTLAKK", "format": "functional"}, "[6]": {"biological_target": "T3, Orexin/Hypocretin receptor type 1 (Homo sapiens, UniProt O43613)", "T3 sequence (O43613 whole entry)": "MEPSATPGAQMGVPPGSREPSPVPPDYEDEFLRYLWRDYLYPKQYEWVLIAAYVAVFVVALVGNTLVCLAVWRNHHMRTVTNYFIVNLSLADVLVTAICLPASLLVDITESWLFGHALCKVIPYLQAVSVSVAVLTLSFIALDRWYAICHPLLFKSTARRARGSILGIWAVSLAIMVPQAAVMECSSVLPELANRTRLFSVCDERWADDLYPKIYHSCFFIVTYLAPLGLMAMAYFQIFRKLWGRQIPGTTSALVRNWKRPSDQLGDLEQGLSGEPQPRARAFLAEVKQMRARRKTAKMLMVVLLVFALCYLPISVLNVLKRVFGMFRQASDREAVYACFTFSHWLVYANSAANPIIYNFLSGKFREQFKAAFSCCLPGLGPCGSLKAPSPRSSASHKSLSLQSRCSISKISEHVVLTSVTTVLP", "test": "Homogeneous Time Resolved Fluorescence (HTRF)-based cell-based high throughput dose response assay for antagonists of the orexin 1 receptor (OX1R; HCRTR1). [Related pubchem assays (depositor defined):AID434989, AID435008, AID463079, AID485270, AID492963, AID492964, AID492965, AID493232, AID504717, AID504718]", "format": "functional"}, "[7]": {"biological_target": "T3, Orexin/Hypocretin receptor type 1", "test": "Fluorescence-based cell-based high throughput dose response assay for antagonists of the orexin 1 receptor (OX1R; HCRTR1). [Related pubchem assays (depositor defined):AID434989, AID435008, AID463079, AID485270, AID492963, AID492964, AID492965, AID493232, AID504717, AID504718]", "format": "functional"}, "[8]": {"biological_target": "T4, Sentrin-specific protease 7 (Homo sapiens, UniProt Q9BQF6)", "T4 sequence (Q9BQF6 whole entry)": "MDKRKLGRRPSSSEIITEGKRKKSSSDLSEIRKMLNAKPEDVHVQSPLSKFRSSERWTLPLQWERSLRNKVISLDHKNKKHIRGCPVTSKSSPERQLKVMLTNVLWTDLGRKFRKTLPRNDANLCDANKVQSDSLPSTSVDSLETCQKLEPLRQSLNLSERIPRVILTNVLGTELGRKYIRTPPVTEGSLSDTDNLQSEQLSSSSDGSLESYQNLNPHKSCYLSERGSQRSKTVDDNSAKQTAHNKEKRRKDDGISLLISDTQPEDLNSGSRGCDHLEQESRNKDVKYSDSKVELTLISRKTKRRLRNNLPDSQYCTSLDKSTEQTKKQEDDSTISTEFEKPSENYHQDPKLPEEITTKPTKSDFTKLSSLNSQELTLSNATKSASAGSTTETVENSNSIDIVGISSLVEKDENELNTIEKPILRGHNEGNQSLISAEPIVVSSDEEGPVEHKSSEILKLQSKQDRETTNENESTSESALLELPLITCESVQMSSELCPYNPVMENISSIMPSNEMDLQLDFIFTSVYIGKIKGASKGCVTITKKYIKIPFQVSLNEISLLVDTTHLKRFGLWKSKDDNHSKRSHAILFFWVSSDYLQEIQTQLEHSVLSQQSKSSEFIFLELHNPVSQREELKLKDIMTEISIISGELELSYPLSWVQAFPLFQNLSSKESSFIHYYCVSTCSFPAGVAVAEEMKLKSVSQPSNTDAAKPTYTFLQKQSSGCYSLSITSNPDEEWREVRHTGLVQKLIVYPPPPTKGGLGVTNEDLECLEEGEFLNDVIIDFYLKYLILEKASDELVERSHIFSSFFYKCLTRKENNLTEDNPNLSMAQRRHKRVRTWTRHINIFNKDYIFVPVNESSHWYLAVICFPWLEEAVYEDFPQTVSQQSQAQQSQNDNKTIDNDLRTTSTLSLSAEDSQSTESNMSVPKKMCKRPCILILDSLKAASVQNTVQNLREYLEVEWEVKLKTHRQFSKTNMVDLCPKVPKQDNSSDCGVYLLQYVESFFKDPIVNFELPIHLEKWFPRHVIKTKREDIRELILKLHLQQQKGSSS", "format": "functional"}, "Caspase-3": {"biological_target": "T5, Caspase-3 (Homo sapiens, UniProt P42574)", "T5 sequence (P42574 whole entry)": "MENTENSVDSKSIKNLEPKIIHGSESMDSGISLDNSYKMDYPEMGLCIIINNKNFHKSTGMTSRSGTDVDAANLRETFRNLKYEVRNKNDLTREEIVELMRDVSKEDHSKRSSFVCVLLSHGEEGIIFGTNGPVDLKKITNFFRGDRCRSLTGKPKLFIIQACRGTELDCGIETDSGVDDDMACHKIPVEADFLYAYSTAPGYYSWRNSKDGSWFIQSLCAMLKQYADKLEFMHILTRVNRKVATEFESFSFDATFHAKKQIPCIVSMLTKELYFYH", "format": "functional"}, "CHO-K1": {"tested_on": "CHO-K1", "test": "as §1, with “Homogeneous time resolved fluorescence (HTRF)-based” for “Fluorescence-based”, “cell-based” for “cell-based high throughput”, “CHO-K1” for “CHO”", "format": "functional", "conditions": "Cricetulus griseus"}, "Orexin receptor type 2 [9]": {"biological_target": "T6, Orexin receptor type 2 (Homo sapiens, UniProt O43614)", "T6 sequence (O43614 whole entry)": "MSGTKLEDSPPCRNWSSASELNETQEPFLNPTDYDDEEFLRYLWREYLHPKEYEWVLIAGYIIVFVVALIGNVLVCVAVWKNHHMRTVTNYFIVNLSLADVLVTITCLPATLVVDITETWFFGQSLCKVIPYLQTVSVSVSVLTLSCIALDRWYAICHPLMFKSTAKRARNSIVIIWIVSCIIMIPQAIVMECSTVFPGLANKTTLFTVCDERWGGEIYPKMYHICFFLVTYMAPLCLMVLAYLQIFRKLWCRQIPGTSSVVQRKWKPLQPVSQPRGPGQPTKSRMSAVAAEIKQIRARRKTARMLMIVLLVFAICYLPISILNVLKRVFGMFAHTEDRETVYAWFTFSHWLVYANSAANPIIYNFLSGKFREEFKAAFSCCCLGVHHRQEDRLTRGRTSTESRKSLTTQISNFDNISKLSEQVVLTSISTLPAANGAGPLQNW", "test": "Counterscreen assay for antagonists of the orexin 1 receptor (OX1R; HCRTR1): Homogeneous Time Resolved Fluorescence (HTRF)-based cell-based dose response assay for antagonists of the orexin 2 receptor (OX2R; HCRTR2), run by assay provider.", "format": "functional"}, "Orexin receptor type 2 [10]": {"biological_target": "T6, Orexin receptor type 2", "test": "Counterscreen assay for antagonists of the orexin 1 receptor (OX1R; HCRTR1): Fluorescence-based cell-based dose response assay for antagonists of the orexin 2 receptor (OX2R; HCRTR2), run by assay provider.", "format": "functional"}, "[11]": {"biological_target": "T7, High affinity choline transporter 1 (Homo sapiens, UniProt Q9GZV3)", "T7 sequence (Q9GZV3 whole entry)": "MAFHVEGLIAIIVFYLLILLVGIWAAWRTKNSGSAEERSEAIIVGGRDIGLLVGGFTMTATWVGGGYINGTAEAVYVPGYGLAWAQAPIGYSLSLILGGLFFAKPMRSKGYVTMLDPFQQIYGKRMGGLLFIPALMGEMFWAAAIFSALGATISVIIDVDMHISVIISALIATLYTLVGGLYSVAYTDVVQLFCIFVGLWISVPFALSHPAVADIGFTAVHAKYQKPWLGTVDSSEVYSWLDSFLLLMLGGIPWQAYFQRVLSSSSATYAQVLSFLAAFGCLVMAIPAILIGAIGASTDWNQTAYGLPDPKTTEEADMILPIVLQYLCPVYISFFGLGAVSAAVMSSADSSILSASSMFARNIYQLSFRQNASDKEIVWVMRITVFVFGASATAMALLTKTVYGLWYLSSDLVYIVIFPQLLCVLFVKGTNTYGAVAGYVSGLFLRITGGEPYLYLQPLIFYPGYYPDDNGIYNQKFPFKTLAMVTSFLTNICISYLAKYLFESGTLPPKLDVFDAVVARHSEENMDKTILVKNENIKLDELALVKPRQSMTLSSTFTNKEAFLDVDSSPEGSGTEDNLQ", "test": "human choline transporter potentiators, potency – cell-based, 10-point CRC, membrane potential dye, dose response (AID 602376)", "format": "functional"}, "[12]": {"test": "THP-1 cell cytotoxicity, dose response, cytotoxicity control, set 3 (AID 504852)", "format": "functional", "conditions": "Mycobacterium tuberculosis"}}, "note": "Activity calls are given as the source filed them."}
{"smiles": "CC(C)NC(=O)Nc1ccc2c(c1)C(=O)N([C@@H](C)CO)C[C@@H](C)[C@H](CN(C)S(=O)(=O)c1ccc(F)cc1)OCCCC[C@H](C)O2", "values": [{"measurement": "AC50", "setting": "[1]", "result": "0.71 µM (active)"}, {"measurement": "AC50", "setting": "[2]", "result": "0.765 µM (active)"}]}
{"smiles": "COc1ccc(/C=C/c2n[nH]c(-c3ccccc3O)n2)cc1OC", "values": [{"measurement": "IC50", "setting": "[3]", "result": "13.6 µM (active)"}, {"measurement": "IC50", "setting": "[4]", "result": "> 49.8 µM (inactive)"}, {"measurement": "IC50", "setting": "[5]", "result": "12.7 µM (active)"}, {"measurement": "IC50", "setting": "[6]", "result": "2.51 µM (active)"}, {"measurement": "IC50", "setting": "[7]", "result": "3.21 µM (active)"}, {"measurement": "IC50", "setting": "[8]", "result": "4.7 µM (active)"}, {"measurement": "IC50", "setting": "Caspase-3", "result": "58.8 µM (active)"}, {"measurement": "IC50", "setting": "CHO-K1", "result": "> 66.2 µM (inactive)"}, {"measurement": "IC50", "setting": "Orexin receptor type 2 [9]", "result": "> 50 µM (inactive)"}, {"measurement": "IC50", "setting": "Orexin receptor type 2 [10]", "result": "> 88.8 µM (inactive)"}]}
{"smiles": "CN(CC(=O)Nc1ccc(F)c(F)c1F)C(=O)c1cc(-c2ccncc2)nc2ccccc12", "values": [{"measurement": "EC50", "setting": "[11]", "result": "14.6 µM (active)"}]}
{"smiles": "CCC(Sc1nc2ccccc2c(=O)[nH]1)C(=O)NC1CCCCC1", "note": "(centres undefined)", "values": [{"measurement": "CC50", "setting": "[12]", "result": "> 100 µM (active)"}]}
